Reference: patent US11000033B2, “Ketone or oxime compound, and herbicide” (NISSAN CHEMICAL CORPORATION, priority 2014, dated 2021)

Legend:
Type in all cases: in vivo
[1] = system: Echinochloa oryzacola Vasing.; experiment: Test Example 2: herbicidal activity, application during weed generation in submerged conditions (symbol A); details: Table 23; application herbicide amount 320 g/ha; grade 0-5 by criteria of Test Example 1
Outline: (§1)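 Alluvial soil in pots was flooded to a 4 cm water depth and sown with a mix of the three weed species, then grown in a greenhouse at 25° C. to 30° C. At the one- to two-leaf stage, an emulsifiable formulation diluted in water to a set dose was applied to the water surface. Effects were scored visually 3 weeks later.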

Scirpus juncoides = experiment: Test Example 2: herbicidal activity, application during weed generation in submerged conditions (symbol B); details: Table 23; application herbicide amount 320 g/ha; grade 0-5 by criteria of Test Example 1
Outline: as §1

[2] = system: directly sowed rice plant; experiment: Test Example 3: effect on crop by foliage application, Wagner pot (symbol b); details: application herbicide amount 320 g/ha
Outline: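 Wagner pot (1/10000 are), alluvial soil, submerged 0.1–0.5 cm; sown E. crus-galli var. crus-galli, L. chinensis, C. difformis, rice; greenhouse 25–30 °C.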

Avena fatua = experiment: Test Example 4: herbicidal effect by soil treatment (symbol I); details: application herbicide amount 320 g/ha
Outline: (§2)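 Seeds were sown in sterilized diluvial soil, covered with about 1.5 cm of soil, and the soil surface was sprayed with a water-diluted emulsion of the compound at a predetermined rate. Plants grew in a greenhouse at 25° C. to 30° C.; effects were scored visually 3 weeks after application.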

Lolium multiflorum Lam. = experiment: Test Example 4: herbicidal effect by soil treatment (symbol K); details: application herbicide amount 320 g/ha
Outline: as §2

Apera spica-venti = experiment: Test Example 4: herbicidal effect by soil treatment (symbol L); details: application herbicide amount 320 g/ha
Outline: as §2

Amaranthus retroflexus = experiment: Test Example 4: herbicidal effect by soil treatment (symbol N); details: application herbicide amount 320 g/ha
Outline: as §2

soybean = experiment: Test Example 4: effect on crop by soil treatment (symbol d); details: application herbicide amount 320 g/ha
Outline: (§3)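 Plants grew in a 25° C. to 30° C. greenhouse after spot-sowing of seeds, including beet, rapeseed, wheat and rice, into sterilized diluvial soil under roughly 1.5 cm of cover soil.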

rice = experiment: Test Example 4: effect on crop by soil treatment (symbol b); details: application herbicide amount 320 g/ha
Outline: as §3

wheat [3] = experiment: Test Example 4: effect on crop by soil treatment (symbol e); details: application herbicide amount 320 g/ha
Outline: as §3

rapeseed [4] = experiment: Test Example 4: effect on crop by soil treatment (symbol g); details: application herbicide amount 320 g/ha
Outline: as §3

Abutilon theophrasti = experiment: Test Example 5: herbicidal effect by foliage application, plastic box (symbol M); details: 320 g/ha, 3 weeks after application
Outline: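 Post-emergence spray; diluvial soil (sterilized), ~1.5 cm seed cover; greenhouse 25–30° C; 14-day-old plants; water-diluted emulsion at predetermined dose; visual score at 3 wk post-treatment.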

rice plant = experiment: Test Example 5: effect on crop by foliage application, plastic box (symbol b); details: 320 g/ha, 3 weeks after application
Outline: (§4)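 Seeds were sown in spots in sterilized diluvial soil held in a plastic box 21 cm × 13 cm × 7 cm deep, covered with about 1.5 cm of soil, and grown in a greenhouse at 25° C. to 30° C.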

wheat [5] = experiment: Test Example 5: effect on crop by foliage application, plastic box (symbol e); details: 320 g/ha, 3 weeks after application
Outline: as §4

beet = experiment: Test Example 5: effect on crop by foliage application, plastic box (symbol f); details: 320 g/ha, 3 weeks after application
Outline: as §4

rapeseed [6] = experiment: Test Example 5: effect on crop by foliage application, plastic box (symbol g); details: 320 g/ha, 3 weeks after application
Outline: as §4

Row | Structure (SMILES) | Herbicidal effect grade, A: Echinochloa oryzacola Vasing. [1] | Herbicidal effect grade, B: Scirpus juncoides (Scirpus juncoides) | effect on crop b (directly sowed rice plant), grade 0-5 [2] | Herbicidal effect grade, I: Avena fatua (Avena fatua) | Herbicidal effect grade, K: Lolium multiflorum Lam. (Lolium multiflorum Lam.) | Herbicidal effect grade, L: Apera spica-venti (Apera spica-venti) | Herbicidal effect grade, N: Amaranthus retroflexus (Amaranthus retroflexus) | Effect on crop grade, d: soybean (soybean) | Effect on crop grade, b: directly sowed rice plant (rice) | Effect on crop grade, e: wheat (wheat [3]) | Effect on crop grade, g: rapeseed (rapeseed [4]) | M: Abutilon theophrasti, herbicidal effect (criteria of Test Example 1) (Abutilon theophrasti) | b: directly sowed rice plant, effect on crop (criteria of Test Example 1) (rice plant) | e: wheat, effect on crop (criteria of Test Example 1) (wheat [5]) | f: beet, effect on crop (criteria of Test Example 1) (beet) | g: rapeseed, effect on crop (criteria of Test Example 1) (rapeseed [6])
1 | CC(=O)CC1CC(O)=C(c2c(C)cc(OCC(F)(F)F)cc2C)C1=O (stereo not shown) [7-015] | 5 (Herbicidal ratio of 90% or more (almost completely withered)) | 0 (Herbicidal ratio of 5% or lower (almost no effect)) | 5 (Herbicidal ratio of 90% or more (almost completely withered)) | 3 (Herbicidal ratio of 40% or higher and lower than 70%) | 5 (Herbicidal ratio of 90% or more (almost completely withered)) | 4 (Herbicidal ratio of 70% or higher and lower than 90%) | 0 (Herbicidal ratio of 5% or lower (almost no effect)) | 0 (Herbicidal ratio of 5% or lower (almost no effect)) | 5 (Herbicidal ratio of 90% or more (almost completely withered)) | 4 (Herbicidal ratio of 70% or higher and lower than 90%) | 2 (Herbicidal ratio of 20% or higher and lower than 40%) | 2 (Herbicidal ratio of 20% or higher and lower than 40%) | 5 (Herbicidal ratio of 90% or more (almost completely withered)) | 5 (Herbicidal ratio of 90% or more (almost completely withered)) | 0 (Herbicidal ratio of 5% or lower (almost no effect)) | 5 (Herbicidal ratio of 90% or more (almost completely withered))
2 | CC(=O)CC1CC(O)=C(c2c(C)cc(OCc3ccccc3)cc2C)C1=O (stereo not shown) [7-018] | 1 (Herbicidal ratio of 5% or higher and lower than 20%) | 0 (Herbicidal ratio of 5% or lower (almost no effect)) | 3 (Herbicidal ratio of 40% or higher and lower than 70%) | 0 (Herbicidal ratio of 5% or lower (almost no effect)) | 0 (Herbicidal ratio of 5% or lower (almost no effect)) | 0 (Herbicidal ratio of 5% or lower (almost no effect)) | 0 (Herbicidal ratio of 5% or lower (almost no effect)) | 0 (Herbicidal ratio of 5% or lower (almost no effect)) | 0 (Herbicidal ratio of 5% or lower (almost no effect)) | 0 (Herbicidal ratio of 5% or lower (almost no effect)) | 0 (Herbicidal ratio of 5% or lower (almost no effect)) | 0 (Herbicidal ratio of 5% or lower (almost no effect)) | 2 (Herbicidal ratio of 20% or higher and lower than 40%) | 0 (Herbicidal ratio of 5% or lower (almost no effect)) | 0 (Herbicidal ratio of 5% or lower (almost no effect)) | 0 (Herbicidal ratio of 5% or lower (almost no effect))
3 | COc1cc(C)c(C2=C(O)CC(CC(C)=O)C2=O)c(C)c1 (stereo not shown) [7-020] | 1 (Herbicidal ratio of 5% or higher and lower than 20%) | 0 (Herbicidal ratio of 5% or lower (almost no effect)) | 4 (Herbicidal ratio of 70% or higher and lower than 90%) | 0 (Herbicidal ratio of 5% or lower (almost no effect)) | 3 (Herbicidal ratio of 40% or higher and lower than 70%) | 0 (Herbicidal ratio of 5% or lower (almost no effect)) | 0 (Herbicidal ratio of 5% or lower (almost no effect)) | 0 (Herbicidal ratio of 5% or lower (almost no effect)) | 5 (Herbicidal ratio of 90% or more (almost completely withered)) | 0 (Herbicidal ratio of 5% or lower (almost no effect)) | 0 (Herbicidal ratio of 5% or lower (almost no effect)) | 0 (Herbicidal ratio of 5% or lower (almost no effect)) | 3 (Herbicidal ratio of 40% or higher and lower than 70%) | 0 (Herbicidal ratio of 5% or lower (almost no effect)) | 0 (Herbicidal ratio of 5% or lower (almost no effect)) | 2 (Herbicidal ratio of 20% or higher and lower than 40%)
4 | CC(=O)CC1CC(O)=C(c2c(C)cc(-n3cccn3)cc2C)C1=O (stereo not shown) [7-024] | 1 (Herbicidal ratio of 5% or higher and lower than 20%) | 0 (Herbicidal ratio of 5% or lower (almost no effect)) | 3 (Herbicidal ratio of 40% or higher and lower than 70%) | 0 (Herbicidal ratio of 5% or lower (almost no effect)) | 0 (Herbicidal ratio of 5% or lower (almost no effect)) | 0 (Herbicidal ratio of 5% or lower (almost no effect)) | 0 (Herbicidal ratio of 5% or lower (almost no effect)) | 0 (Herbicidal ratio of 5% or lower (almost no effect)) | 5 (Herbicidal ratio of 90% or more (almost completely withered)) | 0 (Herbicidal ratio of 5% or lower (almost no effect)) | 0 (Herbicidal ratio of 5% or lower (almost no effect)) | 0 (Herbicidal ratio of 5% or lower (almost no effect)) | 3 (Herbicidal ratio of 40% or higher and lower than 70%) | 0 (Herbicidal ratio of 5% or lower (almost no effect)) | 0 (Herbicidal ratio of 5% or lower (almost no effect)) | 2 (Herbicidal ratio of 20% or higher and lower than 40%)
